Test results as given in patent US20030049253A1, “Polymeric conjugates for delivery of MHC-recognized epitopes via peptide vaccines” (priority 2001, published 2003).

Columns and labels:
Mouse spleen cells = assay: In vitro cytokine assay: IFN-γ ELISA of spleen cell culture supernatants; format: in vivo; details: spleen cells cultured with p7g peptide, 24 hours; limit of detection 5 pg/ml; FIG. 3
Description: In vitro cytokine assay. Mouse spleen cells were cultured with p7g peptides in parallel with the ELISpot assays. Culture supernatants were collected 24 hours after addition of peptide, and the concentrations of gamma interferon (IFN-γ) were determined by enzyme-linked immunosorbent assay (ELISA). Briefly, anti-mouse IFN-γ (R46A2; monoclonal antibody, Pharmingen) was diluted in coating buffer (pH 9.6) and coated (1 μg protein/well) onto 96-well enzyme-linked immunosorbent assay (ELISA) plates (Nunc Immunoplates; Nunc. Corp., Naperville, Ill.) by overnight incubation at 4° C. The plates were washed six times in wash buffer, then blocked with PBS containing 0.05% Tween 20 (Sigma), 1% low-fat dry milk (Carnation; Nestle Food Corp., Glendale, Calif.), and 4% goat serum (KPL Laboratories, Gaithersburg, Md.) for 1 hour. After washing, each plate was incubated with samples diluted in PBS containing 1% BSA and 0.05% Tween 20 for 1 hour. The plates were then incubated with rabbit anti-mouse IFN-γ (Cytlmmune Sciences, Inc. College, Md.) diluted 1:1000 in the same PBS solution for 1 hour and washed again six times. […] The bound mouse IFN-γ was quantitated by calorimetric reaction using p-nitrophenyl phosphate as a substrate (KPL Laboratories). The optical density (OD) was measured at 405 nm in a Bio-Tek Plate Reader (Winooski, Vt.). […]

[1] = tested on: CD4+ and CD8+ splenocytes; set-up: species or system BALB/c mice; details: mouse, in vivo
[2] = tested on: R5 and dual-tropic (R5/X4) HIV-1 strains; details: monocyte-derived macrophages, microglia, primary CD4(+) T cells; cited from earlier work
CD4 receptor = CD4 receptor (Homo sapiens, UniProt P01730); details: in vitro; cited from earlier work
[3] = tested on: human amyloid β amino acid residues 1-42 (Aβ42 peptide); assay: Antibody titer to Aβ42 peptide in vaccinated mice; format: in vivo; details: 100 μg Aβ42 peptide per injection s.c., day 0 and day 14; FIG. 5
Description: Mice were immunized with 100 μg Aβ42 peptide per injection. Aβ42 in PBS alone was injected as control. Mice were primed s.c. on day 0 and boosted on day 14. Detection used goat anti-mouse immunoglobulin conjugated to alkaline phosphatase and p-nitrophenyl phosphate.

Substance: AMQMLKETI [free p7g peptide]
- concentration of IFN-γ in culture supernatants (ELISA) (Mouse spleen cells): no measurable IFN-γ
- CTL response and INF-γ expression (intracellular staining, flow cytometry) [1]: no CTL or INF-γ expression

Substance: AS TTTNYT [Peptide T]
- replication of HIV-1 strains [2]: inhibits replication
- binding of isolated gp120 and HIV-1 to the CD4 receptor (CD4 receptor): inhibition of the binding

Substance: Aβ42 peptide alone
- antibody titer to Aβ42 peptide [3]: no detectable anti-peptide antibody

Substance: Aβ42 peptide linked to HA
- antibody titer to Aβ42 peptide [3]: substantial
